As usually defined, the inhibition is how much of the control response was suppressed.

The target of the test is T1, FER (Homo sapiens, UniProt P16591).
T1 construct: purchased Thermo Fisher Scientific (Life Technologies) SelectScreen
The test can be described thus: SelectScreen Z'LYTE. It counts as biochemical. An outline of the steps: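 SelectScreen broad panel; activity (Z'LYTE, Adapta) plus binding formats. ATP: Km app for CSF1R Z'LYTE; 10 for CAMK1 Adapta. Readout = % per kinase.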

T1 sequence (P16591 whole entry): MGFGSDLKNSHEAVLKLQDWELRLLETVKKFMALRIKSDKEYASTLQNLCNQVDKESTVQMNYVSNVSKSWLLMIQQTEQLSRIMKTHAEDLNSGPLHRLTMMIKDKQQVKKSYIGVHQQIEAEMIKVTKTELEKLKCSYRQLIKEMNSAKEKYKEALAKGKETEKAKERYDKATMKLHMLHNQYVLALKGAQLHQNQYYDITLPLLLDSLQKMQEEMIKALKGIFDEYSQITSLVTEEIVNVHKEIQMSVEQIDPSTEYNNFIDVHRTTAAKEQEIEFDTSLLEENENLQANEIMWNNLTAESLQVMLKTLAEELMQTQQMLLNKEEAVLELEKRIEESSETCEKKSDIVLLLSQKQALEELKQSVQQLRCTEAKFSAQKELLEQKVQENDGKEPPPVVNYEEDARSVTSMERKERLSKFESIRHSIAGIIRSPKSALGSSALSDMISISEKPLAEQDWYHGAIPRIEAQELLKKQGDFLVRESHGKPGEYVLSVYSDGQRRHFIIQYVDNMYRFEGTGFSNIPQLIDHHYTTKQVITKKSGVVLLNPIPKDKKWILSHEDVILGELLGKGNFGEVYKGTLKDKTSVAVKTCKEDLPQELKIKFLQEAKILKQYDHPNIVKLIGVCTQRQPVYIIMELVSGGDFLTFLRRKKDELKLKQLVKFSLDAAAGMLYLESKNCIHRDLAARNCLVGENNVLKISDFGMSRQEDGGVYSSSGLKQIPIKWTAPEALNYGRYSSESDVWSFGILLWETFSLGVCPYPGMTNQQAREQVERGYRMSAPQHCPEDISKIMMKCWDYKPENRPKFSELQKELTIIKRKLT

The compound `CN(C(=O)CN1CCOCC1)c1ccc2sc3c(-c4cccc5c(=O)cc(N6CC7CCC(C6)O7)oc45)cccc3c2c1` [NU5455] yielded an inhibition at 1 µM of 7.1%.

Values taken from PMC6934184, “Selective DNA-PKcs inhibition extends the therapeutic index of localized radiotherapy and chemotherapy” (The Journal of Clinical Investigation, 2019).
